Measured values from patent US8088402B2, “Bone growth compositions and methods” (Neuropro Technologies, Inc., priority 2002, dated 2012).

Test system: male Sprague Dawley rats
Test: Manual palpation scoring of spinal fusion strength after decortication in rats
Format: in vivo, rat
Protocol: Twelve male Sprague Dawley rats, each weighing approximately 500 grams were selected. Each rat underwent anesthesia with Nembutal (50 mg/kg i.p.). Incision over two regions, the thoracic and lumbar, of the spine in each animal were made. Each incision allowed for the exposure of spinous processes and lamina of at east 2 levels per region. Decortication was carried out at each thoracic and lumbar region using a high-speed drill. Over the decorticated levels, nothing, gelmatrix, gelmatrix plus 8 mg lovastatin or gelmatrix plus 16 mg lovastatin were added. 8 mg I.M. of antibiotic Cefazolin™ was subcutaneously administered to each rat.
For purposes of analysis, the rats were divided into three groups. Group A consisting of rats 1-4 was treated with nothing or gelmatrix. Group B consisting of rats 5-8 was treated with gelmatrix and 8 mg of lovastatin. And, group C consisting of rats 9-12 was treated with gelmatrix and 16 mg of lovastatin. The following is a summary of the data:
After en bloc removal, two observers manually palpated the spine of each rat in a blinded fashion. Palpation was made by flexion and extension at the level of the arthrodesis and at the adjacent levels proximally and distally. […] Each motion segment was graded on a qualitative scale (0-3) based on the strength of the fusion. A solid fusion having no motion was given a score of 3. […] No fusion was scored as a 0. […]

SMILES: CC[C@H](C)C(=O)O[C@H]1C[C@@H](C)C=C2C=C[C@H](C)[C@H](CC[C@@H]3C[C@@H](O)CC(=O)O3)[C@H]21 [lovastatin]
- rats treated with lovastatin that had a stronger fusion at the treated region than rats not treated (gelmatrix plus 8 mg or 16 mg lovastatin over decorticated thoracic or lumbar levels, blinded manual palpation, scale 0-3): seventy five
- dose dependence of fusion grades (palpation score 0-3) (gelmatrix plus 8 mg vs 16 mg lovastatin, FIG. 11): dose dependent
